Laboratory results taken from publication PMC9186362, “Design and biological evaluation of substituted 5,7-dihydro-6H-indolo[2,3-c]quinolin-6-one as novel selective Haspin inhibitors” (Journal of Enzyme Inhibition and Medicinal Chemistry, 2022).

How the values were obtained:
Assay in all cases: LanthaScreen Binding - Eu-anti-GST
ACVR2A = target: T1, ACVR2A (Homo sapiens, UniProt P27037); conditions: read-out: Percentage of inhibition
T1 construct: purchased Life Technologies (SelectScreen)
Protocol: (§1) We further evaluated the selectivity profile of compound 55 on a larger panel of kinases (SelectScreen Whole Panel, Life Technologies). The inhibition profile of 55, evaluated at 1 μM, is depicted on a dendrogram on Figure 3 where kinases inhibited by a minimum of 80% are shown. A full list of the kinases tested is shown on Table S1 in supplementary information.

BRSK2 = target: T2, BRSK2 (Homo sapiens, UniProt Q8IWQ3); conditions: read-out: Percentage of inhibition
T2 construct: purchased Life Technologies (SelectScreen Whole Panel service)
Protocol: as §1

TGFBR2 = target: T3, TGFBR2 (Homo sapiens, UniProt P37173); conditions: read-out: Percentage of inhibition
T3 construct: purchased Life Technologies (SelectScreen Whole Panel)
Protocol: as §1

RET M918T = target: T4, RET M918T (Homo sapiens, UniProt P07949, M918T); conditions: read-out: Percentage of inhibition
T4 construct: purchased Life Technologies
Protocol: as §1

GAK = target: T5, GAK (Homo sapiens, UniProt O14976); conditions: read-out: Percentage of inhibition
T5 construct: purchased Life Technologies (SelectScreen service)
Protocol: as §1

ERN2 = target: T6, ERN2 (Homo sapiens, UniProt Q76MJ5); conditions: read-out: Percentage of inhibition
T6 construct: purchased Life Technologies (SelectScreen)
Protocol: as §1

SIK1 = target: T7, SIK1 (Homo sapiens, UniProt P57059); conditions: read-out: Percentage of inhibition
T7 construct: purchased Life Technologies (SelectScreen Whole Panel service)
Protocol: as §1

MAP3K14 (NIK) = target: T8, MAP3K14 (NIK) (Homo sapiens, UniProt Q99558); conditions: read-out: Percentage of inhibition
T8 construct: purchased Life Technologies (SelectScreen service)
Protocol: as §1

ALK F1174L = target: T9, ALK F1174L (Homo sapiens, UniProt Q9UM73, F1174L); conditions: read-out: Percentage of inhibition
T9 construct: purchased Life Technologies
Protocol: as §1

MERTK (cMER) A708S = target: T10, MERTK (cMER) A708S (Homo sapiens, UniProt Q12866, A708S); conditions: read-out: Percentage of inhibition
T10 construct: purchased Life Technologies
Protocol: as §1

DDR1 = target: T11, DDR1 (Homo sapiens, UniProt Q08345); conditions: read-out: Percentage of inhibition
T11 construct: purchased Life Technologies
Protocol: as §1

NUAK2 = target: T12, NUAK2 (Homo sapiens, UniProt Q9H093); conditions: read-out: Percentage of inhibition
T12 construct: purchased Life Technologies (SelectScreen Whole Panel)
Protocol: as §1

CDC7/DBF4 = target: T13, CDC7/DBF4 (Homo sapiens, UniProt O00311); conditions: read-out: Percentage of inhibition
T13 construct: purchased Life Technologies (SelectScreen service)
Protocol: as §1

ABL1 M351T = ABL1 M351T (Homo sapiens, UniProt P00519, M351T); conditions: read-out: Percentage of inhibition
Protocol: as §1

STK17B (DRAK2) = target: T14, STK17B (DRAK2) (Homo sapiens, UniProt O94768); conditions: ATP Km, read-out: Percentage of inhibition
T14 construct: purchased Life Technologies
Protocol: as §1

ULK2 = target: T15, ULK2 (Homo sapiens, UniProt Q8IYT8); conditions: read-out: Percentage of inhibition
T15 construct: purchased Life Technologies (SelectScreen service)
Protocol: as §1

MYO3A (MYO3 alpha) = target: T16, MYO3A (MYO3 alpha) (Homo sapiens, UniProt Q8NEV4); conditions: read-out: Percentage of inhibition
T16 construct: purchased Life Technologies
Protocol: as §1

DDR2 T654M = target: T17, DDR2 T654M (Homo sapiens, UniProt Q16832, T654M); conditions: read-out: Percentage of inhibition
T17 construct: purchased Life Technologies (SelectScreen service)
Protocol: as §1

MKNK2 (MNK2) = MKNK2 (MNK2) (Homo sapiens, UniProt Q9HBH9); conditions: read-out: Percentage of inhibition
Protocol: as §1

TAOK3 (JIK) = target: T18, TAOK3 (JIK) (Homo sapiens, UniProt Q9H2K8); conditions: read-out: Percentage of inhibition
T18 construct: purchased Life Technologies (SelectScreen service)
Protocol: as §1

MAP3K3 (MEKK3) = target: T19, MAP3K3 (MEKK3) (Homo sapiens, UniProt Q99759); conditions: read-out: Percentage of inhibition
T19 construct: purchased Life Technologies (SelectScreen service)
Protocol: as §1

FGFR3 K650M = FGFR3 K650M (Homo sapiens, UniProt P22607, K650M); conditions: read-out: Percentage of inhibition
Protocol: as §1

MAP4K3 (GLK) = MAP4K3 (GLK) (Homo sapiens, UniProt Q8IVH8); conditions: read-out: Percentage of inhibition
Protocol: as §1

CDK5 (Inactive) = CDK5 (Inactive) (Homo sapiens, UniProt Q00535); conditions: read-out: Percentage of inhibition
Protocol: as §1

ULK1 = target: T20, ULK1 (Homo sapiens, UniProt O75385); conditions: read-out: Percentage of inhibition
T20 construct: purchased Life Technologies
Protocol: as §1

RET V804M = target: T21, RET V804M (Homo sapiens, UniProt P07949, V804M); conditions: read-out: Percentage of inhibition
T21 construct: purchased Life Technologies (SelectScreen service)
Protocol: as §1

MYLK (MLCK) = MYLK (MLCK) (Homo sapiens, UniProt Q15746); conditions: read-out: Percentage of inhibition
Protocol: as §1

TESK1 = TESK1 (Homo sapiens, UniProt Q15569); conditions: read-out: Percentage of inhibition
Protocol: as §1

STK32B (YANK2) = STK32B (YANK2) (Homo sapiens, UniProt Q9NY57); conditions: read-out: Percentage of inhibition
Protocol: as §1

DMPK = DMPK (Homo sapiens, UniProt Q09013); conditions: read-out: Percentage of inhibition
Protocol: as §1

TNIK = TNIK (Homo sapiens, UniProt Q9UKE5); conditions: read-out: Percentage of inhibition
Protocol: as §1

STK38L (NDR2) = target: T22, STK38L (NDR2) (Homo sapiens, UniProt Q9Y2H1); conditions: read-out: Percentage of inhibition
T22 construct: purchased Life Technologies (SelectScreen)
Protocol: as §1

TEK (TIE2) R849W = target: T23, TEK (TIE2) R849W (Homo sapiens, UniProt Q02763, R849W); conditions: read-out: Percentage of inhibition
T23 construct: purchased Life Technologies (SelectScreen Whole Panel service)
Protocol: as §1

EPHA7 = target: T24, EPHA7 (Homo sapiens, UniProt Q15375); conditions: read-out: Percentage of inhibition
T24 construct: purchased Life Technologies (SelectScreen service)
Protocol: as §1

KIT Y823D = target: T25, KIT Y823D (Homo sapiens, UniProt P10721, Y823D); conditions: read-out: Percentage of inhibition
T25 construct: purchased Life Technologies
Protocol: as §1

FLT3 ITD = conditions: 1 µM
Protocol: as §1

MAP2K5 (MEK5) = target: T26, MAP2K5 (MEK5) (Homo sapiens, UniProt Q13163); conditions: read-out: Percentage of inhibition
T26 construct: purchased Life Technologies (SelectScreen service)
Protocol: as §1

TGFBR1 (ALK5) = target: T27, TGFBR1 (ALK5) (Homo sapiens, UniProt P36897); conditions: read-out: Percentage of inhibition
T27 construct: purchased Life Technologies (SelectScreen Whole Panel service)
Protocol: as §1

TLK1 = TLK1 (Homo sapiens, UniProt Q9UKI8); conditions: read-out: Percentage of inhibition
Protocol: as §1

BMPR1A (ALK3) = BMPR1A (ALK3) (Homo sapiens, UniProt P36894); conditions: read-out: Percentage of inhibition
Protocol: as §1

Sequence of FGFR3 K650M (P22607 23-806 K650M): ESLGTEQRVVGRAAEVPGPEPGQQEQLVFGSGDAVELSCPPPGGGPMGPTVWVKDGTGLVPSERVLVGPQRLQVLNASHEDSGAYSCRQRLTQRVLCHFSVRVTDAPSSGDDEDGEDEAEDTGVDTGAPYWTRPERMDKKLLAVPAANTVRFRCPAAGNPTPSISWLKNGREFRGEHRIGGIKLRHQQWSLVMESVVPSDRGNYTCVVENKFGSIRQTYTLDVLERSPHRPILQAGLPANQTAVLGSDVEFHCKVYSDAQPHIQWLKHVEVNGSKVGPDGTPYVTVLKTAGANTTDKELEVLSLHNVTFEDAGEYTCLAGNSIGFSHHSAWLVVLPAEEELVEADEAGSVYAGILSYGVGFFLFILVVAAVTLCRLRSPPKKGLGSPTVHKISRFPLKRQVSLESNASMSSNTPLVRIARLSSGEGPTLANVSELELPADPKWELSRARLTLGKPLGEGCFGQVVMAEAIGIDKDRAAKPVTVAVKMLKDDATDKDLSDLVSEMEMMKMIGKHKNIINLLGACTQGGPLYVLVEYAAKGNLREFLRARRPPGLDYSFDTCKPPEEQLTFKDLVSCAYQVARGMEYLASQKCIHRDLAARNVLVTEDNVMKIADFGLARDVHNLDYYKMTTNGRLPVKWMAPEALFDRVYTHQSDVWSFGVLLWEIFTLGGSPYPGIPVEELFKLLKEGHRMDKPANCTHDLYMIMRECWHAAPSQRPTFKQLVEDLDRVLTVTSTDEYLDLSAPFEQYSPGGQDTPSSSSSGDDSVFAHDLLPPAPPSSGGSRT
Sequence of CDK5 (Inactive) (Q00535 whole entry): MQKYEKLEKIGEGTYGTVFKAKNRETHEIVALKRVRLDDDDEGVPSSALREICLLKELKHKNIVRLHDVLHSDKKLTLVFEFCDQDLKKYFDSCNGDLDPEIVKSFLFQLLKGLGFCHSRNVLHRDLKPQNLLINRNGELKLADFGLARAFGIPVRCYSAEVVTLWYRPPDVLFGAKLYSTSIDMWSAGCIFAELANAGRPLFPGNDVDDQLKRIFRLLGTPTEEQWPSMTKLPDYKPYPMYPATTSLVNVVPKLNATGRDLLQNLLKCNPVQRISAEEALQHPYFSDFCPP
T19 sequence (Q99759 whole entry): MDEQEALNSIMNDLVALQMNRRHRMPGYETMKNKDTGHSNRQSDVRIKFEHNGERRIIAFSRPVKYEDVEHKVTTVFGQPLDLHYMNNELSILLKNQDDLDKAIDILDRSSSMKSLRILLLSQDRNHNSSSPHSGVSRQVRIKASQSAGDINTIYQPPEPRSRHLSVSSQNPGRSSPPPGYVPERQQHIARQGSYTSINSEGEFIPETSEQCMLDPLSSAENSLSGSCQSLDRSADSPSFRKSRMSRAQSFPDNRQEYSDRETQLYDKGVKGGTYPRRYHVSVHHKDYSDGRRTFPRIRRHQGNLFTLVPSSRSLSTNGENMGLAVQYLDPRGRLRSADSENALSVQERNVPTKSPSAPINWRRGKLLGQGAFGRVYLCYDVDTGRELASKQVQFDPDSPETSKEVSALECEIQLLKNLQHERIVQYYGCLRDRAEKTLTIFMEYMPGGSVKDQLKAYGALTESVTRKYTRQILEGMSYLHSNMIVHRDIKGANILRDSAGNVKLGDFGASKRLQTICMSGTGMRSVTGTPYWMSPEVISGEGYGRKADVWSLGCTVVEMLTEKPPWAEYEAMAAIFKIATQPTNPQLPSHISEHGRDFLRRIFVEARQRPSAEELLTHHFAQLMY
Sequence of TLK1 (Q9UKI8 whole entry): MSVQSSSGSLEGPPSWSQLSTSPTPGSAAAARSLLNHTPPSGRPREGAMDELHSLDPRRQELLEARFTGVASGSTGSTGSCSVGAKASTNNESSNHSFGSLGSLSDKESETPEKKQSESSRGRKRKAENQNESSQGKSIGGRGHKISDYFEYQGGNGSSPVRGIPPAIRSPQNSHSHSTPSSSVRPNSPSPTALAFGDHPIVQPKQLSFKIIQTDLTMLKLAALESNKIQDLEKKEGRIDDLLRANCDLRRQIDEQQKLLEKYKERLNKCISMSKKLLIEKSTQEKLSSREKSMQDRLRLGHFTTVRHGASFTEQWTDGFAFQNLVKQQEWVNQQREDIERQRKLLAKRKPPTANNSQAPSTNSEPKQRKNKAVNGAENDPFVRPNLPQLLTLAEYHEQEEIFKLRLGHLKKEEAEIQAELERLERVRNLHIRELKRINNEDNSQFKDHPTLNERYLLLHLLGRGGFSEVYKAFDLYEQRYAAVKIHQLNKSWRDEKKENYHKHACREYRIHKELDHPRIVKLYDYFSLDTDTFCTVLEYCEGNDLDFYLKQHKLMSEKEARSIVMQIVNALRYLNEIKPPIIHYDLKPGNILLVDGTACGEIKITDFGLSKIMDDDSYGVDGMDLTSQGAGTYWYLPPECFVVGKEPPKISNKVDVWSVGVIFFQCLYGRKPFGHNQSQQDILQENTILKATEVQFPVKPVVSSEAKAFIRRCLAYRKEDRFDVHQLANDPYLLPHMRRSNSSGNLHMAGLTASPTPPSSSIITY
T5 sequence (O14976 whole entry): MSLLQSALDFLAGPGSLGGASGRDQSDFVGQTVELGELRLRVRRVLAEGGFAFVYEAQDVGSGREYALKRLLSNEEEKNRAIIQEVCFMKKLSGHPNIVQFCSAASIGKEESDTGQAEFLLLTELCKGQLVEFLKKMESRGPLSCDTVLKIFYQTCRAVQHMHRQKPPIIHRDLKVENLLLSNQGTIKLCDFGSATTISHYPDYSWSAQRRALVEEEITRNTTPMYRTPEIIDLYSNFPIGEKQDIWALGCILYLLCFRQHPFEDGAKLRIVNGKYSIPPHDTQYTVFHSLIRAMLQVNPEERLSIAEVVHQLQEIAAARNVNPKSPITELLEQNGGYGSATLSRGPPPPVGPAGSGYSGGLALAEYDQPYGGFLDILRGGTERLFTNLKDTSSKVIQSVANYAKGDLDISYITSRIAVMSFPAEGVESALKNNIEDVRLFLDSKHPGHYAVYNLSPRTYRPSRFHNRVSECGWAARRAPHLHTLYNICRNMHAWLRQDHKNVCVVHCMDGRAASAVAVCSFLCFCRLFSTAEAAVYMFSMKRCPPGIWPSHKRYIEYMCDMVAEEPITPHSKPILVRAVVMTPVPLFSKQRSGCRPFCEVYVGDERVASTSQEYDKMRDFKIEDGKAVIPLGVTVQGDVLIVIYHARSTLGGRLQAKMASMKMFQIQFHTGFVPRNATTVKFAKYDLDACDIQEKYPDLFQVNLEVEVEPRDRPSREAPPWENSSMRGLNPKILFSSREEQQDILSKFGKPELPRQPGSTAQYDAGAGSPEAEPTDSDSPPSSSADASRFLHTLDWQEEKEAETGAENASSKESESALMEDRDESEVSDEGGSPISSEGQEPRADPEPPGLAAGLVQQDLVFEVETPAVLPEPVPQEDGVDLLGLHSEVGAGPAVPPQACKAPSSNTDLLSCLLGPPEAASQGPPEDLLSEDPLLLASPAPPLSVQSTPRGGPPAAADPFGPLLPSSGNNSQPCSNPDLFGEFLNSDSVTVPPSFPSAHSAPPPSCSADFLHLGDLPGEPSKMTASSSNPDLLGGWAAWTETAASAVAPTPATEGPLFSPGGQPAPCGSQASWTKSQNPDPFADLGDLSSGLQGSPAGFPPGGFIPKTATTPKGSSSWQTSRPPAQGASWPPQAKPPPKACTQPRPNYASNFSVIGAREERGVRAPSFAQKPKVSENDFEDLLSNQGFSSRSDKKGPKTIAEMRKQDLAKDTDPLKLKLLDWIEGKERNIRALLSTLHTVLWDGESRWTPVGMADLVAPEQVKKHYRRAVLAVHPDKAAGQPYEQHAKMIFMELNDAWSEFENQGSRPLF
Sequence of MKNK2 (MNK2) (Q9HBH9 whole entry): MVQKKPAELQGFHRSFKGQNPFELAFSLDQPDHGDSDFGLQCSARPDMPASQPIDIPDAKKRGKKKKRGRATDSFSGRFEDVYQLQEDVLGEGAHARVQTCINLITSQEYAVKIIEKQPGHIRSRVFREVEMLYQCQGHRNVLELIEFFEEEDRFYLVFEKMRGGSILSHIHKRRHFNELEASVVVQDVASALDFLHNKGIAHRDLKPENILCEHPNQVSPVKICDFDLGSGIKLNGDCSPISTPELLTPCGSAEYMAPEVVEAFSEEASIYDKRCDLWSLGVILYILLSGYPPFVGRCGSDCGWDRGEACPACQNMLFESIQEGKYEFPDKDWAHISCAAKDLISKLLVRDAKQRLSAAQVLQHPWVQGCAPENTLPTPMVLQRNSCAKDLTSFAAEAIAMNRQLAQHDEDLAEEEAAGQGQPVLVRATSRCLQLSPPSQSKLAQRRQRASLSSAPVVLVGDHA
T2 sequence (Q8IWQ3 whole entry): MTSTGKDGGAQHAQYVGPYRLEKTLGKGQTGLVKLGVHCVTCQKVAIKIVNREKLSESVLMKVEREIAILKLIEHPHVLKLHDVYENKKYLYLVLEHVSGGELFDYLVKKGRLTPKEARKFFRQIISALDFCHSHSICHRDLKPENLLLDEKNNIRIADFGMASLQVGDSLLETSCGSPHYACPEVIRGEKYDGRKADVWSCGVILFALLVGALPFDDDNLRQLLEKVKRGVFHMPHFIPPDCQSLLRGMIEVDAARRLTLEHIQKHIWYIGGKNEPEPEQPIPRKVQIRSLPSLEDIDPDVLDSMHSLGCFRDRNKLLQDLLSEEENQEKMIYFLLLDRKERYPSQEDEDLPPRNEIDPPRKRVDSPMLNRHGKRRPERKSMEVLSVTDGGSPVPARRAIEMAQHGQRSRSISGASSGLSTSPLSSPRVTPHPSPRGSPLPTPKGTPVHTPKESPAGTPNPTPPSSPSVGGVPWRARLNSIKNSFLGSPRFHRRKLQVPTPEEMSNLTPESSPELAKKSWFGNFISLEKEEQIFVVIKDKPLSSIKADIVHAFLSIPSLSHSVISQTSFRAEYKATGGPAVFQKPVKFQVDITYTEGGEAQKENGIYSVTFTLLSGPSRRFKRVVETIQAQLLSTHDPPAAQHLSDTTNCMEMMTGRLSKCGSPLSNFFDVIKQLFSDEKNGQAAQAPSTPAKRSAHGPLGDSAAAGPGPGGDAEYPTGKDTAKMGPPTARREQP

**Q.** With `COc1ccc2[nH]c3c(=O)[nH]c4ccc(O)cc4c3c2c1` [Compound 55, 2-Hydroxy-10-methoxy-5,7-dihydro-6H-indolo[2,3-c]quinolin-6-one] as the molecule, how does the inhibition at 1 µM (ACVR2A) read?
**A.** 8%

**Q.** What about the inhibition at 1 µM (BRSK2) of the same molecule?
**A.** 15%

**Q.** What about the inhibition at 1 µM (TGFBR2) of the same molecule?
**A.** 102%

**Q.** And the inhibition at 1 µM (RET M918T)?
**A.** 94%

**Q.** And the inhibition at 1 µM (GAK)?
**A.** 90%

**Q.** And the inhibition at 1 µM (ERN2)?
**A.** 8%

**Q.** And the inhibition at 1 µM (SIK1)?
**A.** 19%

**Q.** And the inhibition at 1 µM (MAP3K14 (NIK))?
**A.** 79%

**Q.** And the inhibition at 1 µM (ALK F1174L)?
**A.** 33%

**Q.** And the inhibition at 1 µM (MERTK (cMER) A708S)?
**A.** 31%

**Q.** What about the inhibition at 1 µM (DDR1) of the same molecule?
**A.** 5%

**Q.** What about the inhibition at 1 µM (NUAK2) of the same molecule?
**A.** 53%

**Q.** What about the inhibition at 1 µM (CDC7/DBF4) of the same molecule?
**A.** 83%

**Q.** What about the inhibition at 1 µM (ABL1 M351T) of the same molecule?
**A.** 60%

**Q.** And the inhibition at 1 µM (STK17B (DRAK2))?
**A.** 93%

**Q.** What about the inhibition at 1 µM (ULK2) of the same molecule?
**A.** 25%

**Q.** And the inhibition at 1 µM (MYO3A (MYO3 alpha))?
**A.** 33%

**Q.** What about the inhibition at 1 µM (DDR2 T654M) of the same molecule?
**A.** 73%

**Q.** And the inhibition at 1 µM (MKNK2 (MNK2))?
**A.** 19%

**Q.** And the inhibition at 1 µM (TAOK3 (JIK))?
**A.** 24%

**Q.** What about the inhibition at 1 µM (MAP3K3 (MEKK3)) of the same molecule?
**A.** 71%

**Q.** And the inhibition at 1 µM (FGFR3 K650M)?
**A.** 67%

**Q.** What about the inhibition at 1 µM (MAP4K3 (GLK)) of the same molecule?
**A.** 59%

**Q.** And the inhibition at 1 µM (CDK5 (Inactive))?
**A.** 21%

**Q.** What about the inhibition at 1 µM (ULK1) of the same molecule?
**A.** 31%

**Q.** And the inhibition at 1 µM (RET V804M)?
**A.** 88%

**Q.** What about the inhibition at 1 µM (MYLK (MLCK)) of the same molecule?
**A.** 60%

**Q.** What about the inhibition at 1 µM (TESK1) of the same molecule?
**A.** 15%

**Q.** And the inhibition at 1 µM (STK32B (YANK2))?
**A.** 7%

**Q.** And the inhibition at 1 µM (DMPK)?
**A.** 63%

**Q.** And the inhibition at 1 µM (TNIK)?
**A.** 61%

**Q.** What about the inhibition at 1 µM (STK38L (NDR2)) of the same molecule?
**A.** 8%

**Q.** What about the inhibition at 1 µM (TEK (TIE2) R849W) of the same molecule?
**A.** 11%

**Q.** What about the inhibition at 1 µM (EPHA7) of the same molecule?
**A.** 23%

**Q.** What about the inhibition at 1 µM (KIT Y823D) of the same molecule?
**A.** 30%

**Q.** What about the Percentage of inhibition (FLT3 ITD) of the same molecule?
**A.** 97%

**Q.** And the inhibition at 1 µM (MAP2K5 (MEK5))?
**A.** 80%

**Q.** What about the inhibition at 1 µM (TGFBR1 (ALK5)) of the same molecule?
**A.** 10%

**Q.** What about the inhibition at 1 µM (TLK1) of the same molecule?
**A.** 68%

**Q.** And the inhibition at 1 µM (BMPR1A (ALK3))?
**A.** 6%
